This is an account of results in the supplement of paper PMC11208160.

The data set in a line: recombinant UMI read abundance after kanamycin selection (control-corrected) (log10(CPM+1)); higher = more efficient recombination; extreme values may be limits of the assay; sequences stand for … in AGTGCAGAGAAAATCGGCCAGTTTTCTCTGCCTGCAGTCCGCATGCCGTGGGACCCCTTGGGTTCTAACCTGTTGCCTAGATTTATGCAGCGGACTGCCTTTCTCCCAAAGTGATAAACCGG…AGGTTGGTTTCACT; site = the 11-nt donor. As to the method: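 Pooled E. coli donor-specificity screen for the IS621 bridge recombinase. Each library member carries a reprogrammed 11-nt donor and a full-length LE bridge RNA expressed in cis from the natural promoter, with a paired donor-binding loop (8-nt LDG + 4-nt RDG) and a target-binding loop fixed to T5. It is co-electroporated with a T5 target plasmid; recombinase is induced with 0.07 mM IPTG and recombinants are selected on kanamycin. UMIs are counted as CPM, averaged over two biological replicates and corrected by the unselected control. Molecule = full bridge RNA written as DNA, built from the T5 scaffold: LDG = donor specificity nt 1-8, RDG = reverse complement of nt 8-11.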
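Further: IS621 bridge recombinase in Escherichia coli cells against a fixed T5 target plasmid.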

Take “AACTCCTCATGGACCGGTTTTCCCGGTAATCCGTATTTGCC (site GACTCCTCTGG)”: the “recombinant UMI read abundance (log10)” value stood at 1.42.

With “AACTCCTCATGGACCGGTTTTCCCGGTAATCCGTATTTGCC (site TACTCCTCTGG)”, the “recombinant UMI read abundance (log10)” value was 2.61.

As to “AACTCTACATGGACCGGTTTTCCCGGTAATCCGTATTTGTG (site AACTCTACTCA)”, the “recombinant UMI read abundance (log10)” value amounted to 0.146.

On to “AACTGCACATGGACCGGTTTTCCCGGTAATCCGTATTTGCT (site AACTGCACTAG)”, for which the “recombinant UMI read abundance (log10)” value stood at 1.96.

“AACTTGCCATGGACCGGTTTTCCCGGTAATCCGTATTTGGC (site AACTTGCCTGC)”: the “recombinant UMI read abundance (log10)” value is 0.

As for “AACTTGGCATGGACCGGTTTTCCCGGTAATCCGTATTTGGA (site AACTTGGCTTC)”, the “recombinant UMI read abundance (log10)” value was found to be 0.368.

Regarding “AACTTGGCATGGACCGGTTTTCCCGGTAATCCGTATTTGGA (site CACTTGGCTTC)”, the “recombinant UMI read abundance (log10)” value came to 0.467.

With “AACTTGGCATGGACCGGTTTTCCCGGTAATCCGTATTTGGA (site GACTTGGCTTC)”, the “recombinant UMI read abundance (log10)” value was determined as 0.439.

As for “AACTTGGCATGGACCGGTTTTCCCGGTAATCCGTATTTGGA (site TACTTGGCTTC)”, the “recombinant UMI read abundance (log10)” value stood at 0.393.

Turning to “AAGAACGCATGGACCGGTTTTCCCGGTAATCCGTATTTGGG (site AAGAACGCTCC)”, the “recombinant UMI read abundance (log10)” value was found to be 0.564.

“AAGAACGCATGGACCGGTTTTCCCGGTAATCCGTATTTGGG (site AAGCACGCTCC)”: the “recombinant UMI read abundance (log10)” value was 0.0226.

Regarding “AAGAACGCATGGACCGGTTTTCCCGGTAATCCGTATTTGGG (site AAGGACGCTCC)”, the “recombinant UMI read abundance (log10)” value came to 0.0122.

Take “AAGAACGCATGGACCGGTTTTCCCGGTAATCCGTATTTGGG (site AAGTACGCTCC)”: the “recombinant UMI read abundance (log10)” value was 0.0143.

Regarding “AAGAAGCCATGGACCGGTTTTCCCGGTAATCCGTATTTGCA (site AAGAAGCCTTG)”, the “recombinant UMI read abundance (log10)” value came to 1.32.

In the case of “AAGAAGCCATGGACCGGTTTTCCCGGTAATCCGTATTTGCA (site AGGAAGACTTG)”, the “recombinant UMI read abundance (log10)” value was found to be 0.00613.

As to “AAGACGACATGGACCGGTTTTCCCGGTAATCCGTATTTGGA (site AAGACGACTTC)”, the “recombinant UMI read abundance (log10)” value came out at 0.804.

Take “AAGCACCCATGGACCGGTTTTCCCGGTAATCCGTATTTGGG (site AAGCACACTCC)”: the “recombinant UMI read abundance (log10)” value amounted to 0.0118.

Turning to “AAGCACCCATGGACCGGTTTTCCCGGTAATCCGTATTTGGG (site AAGCACCCTCC)”, the “recombinant UMI read abundance (log10)” value is 0.0505.

“AAGCACCCATGGACCGGTTTTCCCGGTAATCCGTATTTGGG (site AAGCACGCTCC)”: the “recombinant UMI read abundance (log10)” value amounted to 0.00747.

On to “AAGCACCCATGGACCGGTTTTCCCGGTAATCCGTATTTGGG (site AAGCACTCTCC)”, for which the “recombinant UMI read abundance (log10)” value is 0.371.

For the sequence “AAGCAGACATGGACCGGTTTTCCCGGTAATCCGTATTTGGA (site AAGCAGACTTC)”, the “recombinant UMI read abundance (log10)” value stood at 1.25.

In the case of “AAGCAGTCATGGACCGGTTTTCCCGGTAATCCGTATTTGAC (site AAGCAGTCTGT)”, the “recombinant UMI read abundance (log10)” value amounted to 2.88.

Consider “AAGCATGCATGGACCGGTTTTCCCGGTAATCCGTATTTGGG (site AAGCAAGCTCC)”, for which the “recombinant UMI read abundance (log10)” value amounted to 0.0205.

For “AAGCATGCATGGACCGGTTTTCCCGGTAATCCGTATTTGGG (site AAGCACGCTCC)”, the “recombinant UMI read abundance (log10)” value is 0.00447.

“AAGCATGCATGGACCGGTTTTCCCGGTAATCCGTATTTGGG (site AAGCAGGCTCC)”: the “recombinant UMI read abundance (log10)” value was determined as 0.0127.

“AAGCATGCATGGACCGGTTTTCCCGGTAATCCGTATTTGGG (site AAGCATGCTCC)”: the “recombinant UMI read abundance (log10)” value was 0.297.

Regarding “AAGCCGCCATGGACCGGTTTTCCCGGTAATCCGTATTTGGC (site AAGCCGCCTGC)”, the “recombinant UMI read abundance (log10)” value came out at 0.

As for “AAGCCTTCATGGACCGGTTTTCCCGGTAATCCGTATTTGGT (site AAGCCTTCTAC)”, the “recombinant UMI read abundance (log10)” value was 0.585.

“AAGCCTTCATGGACCGGTTTTCCCGGTAATCCGTATTTGGT (site CAGCCTTCTAC)”: the “recombinant UMI read abundance (log10)” value was 0.357.

On to “AAGCCTTCATGGACCGGTTTTCCCGGTAATCCGTATTTGGT (site GAGCCTTCTAC)”, for which the “recombinant UMI read abundance (log10)” value was determined as 0.134.

Turning to “AAGCCTTCATGGACCGGTTTTCCCGGTAATCCGTATTTGGT (site TAGCCTTCTAC)”, the “recombinant UMI read abundance (log10)” value stood at 0.12.

In the case of “AAGCGTCCATGGACCGGTTTTCCCGGTAATCCGTATTTGCG (site AAGCGTCCTCG)”, the “recombinant UMI read abundance (log10)” value came out at 1.06.

As for “AAGCGTTCATGGACCGGTTTTCCCGGTAATCCGTATTTGTT (site AAGCGTTCTAA)”, the “recombinant UMI read abundance (log10)” value amounted to 1.52.

In the case of “AAGCTCACATGGACCGGTTTTCCCGGTAATCCGTATTTGAT (site AAGCTCACTAT)”, the “recombinant UMI read abundance (log10)” value worked out at 1.97.

With “AAGCTCACATGGACCGGTTTTCCCGGTAATCCGTATTTGAT (site CAGCTCACTAT)”, the “recombinant UMI read abundance (log10)” value amounted to 1.5.

Turning to “AAGCTCACATGGACCGGTTTTCCCGGTAATCCGTATTTGAT (site GAGCTCACTAT)”, the “recombinant UMI read abundance (log10)” value worked out at 0.291.

Turning to “AAGCTCACATGGACCGGTTTTCCCGGTAATCCGTATTTGAT (site TAGCTCACTAT)”, the “recombinant UMI read abundance (log10)” value came to 1.55.

As to “AAGGACCCATGGACCGGTTTTCCCGGTAATCCGTATTTGAA (site AAGGACCCTTT)”, the “recombinant UMI read abundance (log10)” value amounted to 1.1.

On to “AAGGACGCATGGACCGGTTTTCCCGGTAATCCGTATTTGCC (site AAGGACGCTGG)”, for which the “recombinant UMI read abundance (log10)” value is 2.85.

As for “AAGGAGCCATGGACCGGTTTTCCCGGTAATCCGTATTTGGA (site AAGGAGCCTTC)”, the “recombinant UMI read abundance (log10)” value is 0.02.

Turning to “AAGGCGACATGGACCGGTTTTCCCGGTAATCCGTATTTGCT (site AAGGCGACTAG)”, the “recombinant UMI read abundance (log10)” value stood at 2.18.

As to “AAGGGACCATGGACCGGTTTTCCCGGTAATCCGTATTTGGT (site AAGGGACCTAC)”, the “recombinant UMI read abundance (log10)” value was found to be 0.00499.

In the case of “AAGGGGCCATGGACCGGTTTTCCCGGTAATCCGTATTTGTG (site AAGGGGCCTCA)”, the “recombinant UMI read abundance (log10)” value is 0.00547.

Regarding “AAGGGTCCATGGACCGGTTTTCCCGGTAATCCGTATTTGAG (site AAGGGTCCTCT)”, the “recombinant UMI read abundance (log10)” value was 0.405.

Turning to “AAGGTGCCATGGACCGGTTTTCCCGGTAATCCGTATTTGAT (site AAGGTGCCTAT)”, the “recombinant UMI read abundance (log10)” value was 0.438.

As to “AAGTAAGCATGGACCGGTTTTCCCGGTAATCCGTATTTGGA (site AAGTAAGCTTC)”, the “recombinant UMI read abundance (log10)” value was 1.78.

For “AAGTATGCATGGACCGGTTTTCCCGGTAATCCGTATTTGGA (site AAATATGCTTC)”, the “recombinant UMI read abundance (log10)” value was 0.814.

As for “AAGTATGCATGGACCGGTTTTCCCGGTAATCCGTATTTGGA (site AACTATGCTTC)”, the “recombinant UMI read abundance (log10)” value was determined as 1.43.

Turning to “AAGTATGCATGGACCGGTTTTCCCGGTAATCCGTATTTGGA (site AAGTATGCTTC)”, the “recombinant UMI read abundance (log10)” value came out at 1.96.

Take “AAGTATGCATGGACCGGTTTTCCCGGTAATCCGTATTTGGA (site AATTATGCTTC)”: the “recombinant UMI read abundance (log10)” value came to 1.04.

In the case of “AAGTCAACATGGACCGGTTTTCCCGGTAATCCGTATTTGTG (site AAGTCAACTCA)”, the “recombinant UMI read abundance (log10)” value was 0.011.

In the case of “AAGTCCACATGGACCGGTTTTCCCGGTAATCCGTATTTGCC (site AAGTCCACTGG)”, the “recombinant UMI read abundance (log10)” value turned out to be 1.61.

Take “AAGTCCGCATGGACCGGTTTTCCCGGTAATCCGTATTTGAT (site AAGTCCGCTAT)”: the “recombinant UMI read abundance (log10)” value was 1.53.

Regarding “AAGTCGACATGGACCGGTTTTCCCGGTAATCCGTATTTGGG (site AAGTCGACTCC)”, the “recombinant UMI read abundance (log10)” value came to 0.0303.

For the sequence “AAGTCGACATGGACCGGTTTTCCCGGTAATCCGTATTTGGG (site CAGTCGACTCC)”, the “recombinant UMI read abundance (log10)” value stood at 0.0471.

Consider “AAGTCGACATGGACCGGTTTTCCCGGTAATCCGTATTTGGG (site GAGTCGACTCC)”, for which the “recombinant UMI read abundance (log10)” value was 0.0282.

Regarding “AAGTCGACATGGACCGGTTTTCCCGGTAATCCGTATTTGGG (site TAGTCGACTCC)”, the “recombinant UMI read abundance (log10)” value amounted to 0.0179.

“AAGTCTACATGGACCGGTTTTCCCGGTAATCCGTATTTGTA (site AAGTCTACTTA)”: the “recombinant UMI read abundance (log10)” value came to 0.646.

Regarding “AAGTTCCCATGGACCGGTTTTCCCGGTAATCCGTATTTGTG (site AAGTTCCCTCA)”, the “recombinant UMI read abundance (log10)” value stood at 0.111.

Turning to “AAGTTCCCATGGACCGGTTTTCCCGGTAATCCGTATTTGTG (site ACGTTCCCTCA)”, the “recombinant UMI read abundance (log10)” value came out at 0.

As for “AAGTTCCCATGGACCGGTTTTCCCGGTAATCCGTATTTGTG (site AGGTTCCCTCA)”, the “recombinant UMI read abundance (log10)” value was 0.0112.

In the case of “AAGTTCCCATGGACCGGTTTTCCCGGTAATCCGTATTTGTG (site ATGTTCCCTCA)”, the “recombinant UMI read abundance (log10)” value came out at 0.0155.

Regarding “AAGTTCTCATGGACCGGTTTTCCCGGTAATCCGTATTTGCC (site AAGTTCTCTGG)”, the “recombinant UMI read abundance (log10)” value was determined as 2.31.

In the case of “AAGTTGGCATGGACCGGTTTTCCCGGTAATCCGTATTTGCA (site AAGTTGGCTTG)”, the “recombinant UMI read abundance (log10)” value is 2.05.

As for “AAGTTTACATGGACCGGTTTTCCCGGTAATCCGTATTTGAC (site AAGTTTACTGT)”, the “recombinant UMI read abundance (log10)” value is 1.97.
